Experimental data published in ChEMBL document CHEMBL1629655, “Affinity of Tomopenem (CS-023) for penicillin-binding proteins in Staphylococcus aureus, Escherichia coli, and Pseudomonas aeruginosa” (Antimicrob Agents Chemother, 2009).
Converted amounts (≈) assume the structure as drawn.

Key:
Escherichia coli [1] = test: Ratio of MIC for Escherichia coli EMR2a to MIC for Escherichia coli NIHJ; type: functional
Staphylococcus aureus [2] = test: Antibacterial activity against Staphylococcus aureus SRR2a selected at 2 times MIC of tomopenem by microdilution method; type: functional
Escherichia coli [3] = test: Ratio of MIC for Escherichia coli EIR4b to MIC for Escherichia coli NIHJ; type: functional
Escherichia coli [4] = test: Ratio of MIC for Escherichia coli ERR2b to MIC for Escherichia coli NIHJ; type: functional
[5] = Displacement of [14C]benzylpenicillin from PBP2 Staphylococcus aureus ATCC 6538P
Escherichia coli [6] = test: Antibacterial activity against Escherichia coli EIR2a selected at 2 times MIC of imipenem by microdilution method; type: functional
[7] = Displacement of [14C]benzylpenicillin from PBP1A in Pseudomonas aeruginosa ATCC 15692
Pseudomonas aeruginosa [8] = test: Ratio of MIC for Pseudomonas aeruginosa PRR4a to MIC for Pseudomonas aeruginosa ATCC 15692; type: functional
[9] = Displacement of [14C]benzylpenicillin from PBP1B in Escherichia coli NIHJ
Escherichia coli [10] = test: Antibacterial activity against Escherichia coli EIR8a selected at 8 times MIC of imipenem by microdilution method; type: functional
Escherichia coli [11] = test: Antibacterial activity against Escherichia coli ERR8a selected at 8 times MIC of tomopenem by microdilution method; type: functional
Staphylococcus aureus [12] = test: Ratio of MIC for Staphylococcus aureus SMR2a to MIC for Staphylococcus aureus ATCC 6538P; type: functional
[13] = Displacement of [14C]benzylpenicillin from PBP 5 in Pseudomonas aeruginosa ATCC 15692
Staphylococcus aureus [14] = test: Antibacterial activity against Staphylococcus aureus SIR2a selected at 2 times MIC of imipenem by microdilution method; type: functional
Pseudomonas aeruginosa [15] = test: Antibacterial activity against Pseudomonas aeruginosa PRR4a selected at 4 times MIC of tomopenem by microdilution method; type: functional
Escherichia coli [16] = test: Ratio of MIC for Escherichia coli ERR4a to MIC for Escherichia coli NIHJ; type: functional
Escherichia coli [17] = test: Ratio of MIC for Escherichia coli EIR2b to MIC for Escherichia coli NIHJ; type: functional
Escherichia coli [18] = test: Ratio of MIC for Escherichia coli ERR2a selected to MIC for Escherichia coli NIHJ; type: functional
[19] = Displacement of [14C]benzylpenicillin from PBP3 in Staphylococcus aureus ATCC 6538P
[20] = Displacement of [14C]benzylpenicillin from PBP3 in Escherichia coli NIHJ
Escherichia coli [21] = test: Antibacterial activity against Escherichia coli EMR2a selected at 2 times MIC of meropenem by microdilution method; type: functional
Escherichia coli [22] = test: Ratio of MIC for Escherichia coli EIR2a to MIC for Escherichia coli NIHJ; type: functional
[23] = Displacement of [14C]benzylpenicillin from PBP2 in Escherichia coli NIHJ
[24] = Displacement of [14C]benzylpenicillin from PBP4 in Pseudomonas aeruginosa ATCC 15692
Escherichia coli [25] = test: Antibacterial activity against Escherichia coli NIHJ by microdilution method; type: functional, organism-based
Pseudomonas aeruginosa [26] = test: Antibacterial activity against Pseudomonas aeruginosa PIR2a selected at 2 times MIC of imipenem by microdilution method; type: functional
[27] = Displacement of [14C]benzylpenicillin from PBP 6 in Pseudomonas aeruginosa ATCC 15692
Escherichia coli [28] = test: Ratio of MIC for Escherichia coli EIR8a to MIC for Escherichia coli NIHJ; type: functional
Escherichia coli [29] = test: Antibacterial activity against Escherichia coli EIR4a selected at 4 times MIC of imipenem by microdilution method; type: functional
Pseudomonas aeruginosa [30] = test: Antibacterial activity against Pseudomonas aeruginosa ATCC 15692 by microdilution method; type: functional, organism-based
[31] = Displacement of [14C]benzylpenicillin from PBP6 Escherichia coli NIHJ
Staphylococcus aureus [32] = test: Antibacterial activity against Staphylococcus aureus SMR2a selected at 2 times MIC of meropenem by microdilution method; type: functional
Staphylococcus aureus [33] = test: Ratio of MIC for Staphylococcus aureus SRR2a to MIC for Staphylococcus aureus ATCC 6538P; type: functional
Pseudomonas aeruginosa [34] = test: Antibacterial activity against Pseudomonas aeruginosa PMR2a selected at 2 times MIC of meropenem by microdilution method; type: functional
[35] = Displacement of [14C]benzylpenicillin from PBP1A in Escherichia coli NIHJ
[36] = Displacement of [14C]benzylpenicillin from PBP4 in Staphylococcus aureus ATCC 6538P
[37] = Displacement of [14C]benzylpenicillin from PBP5 in Escherichia coli NIHJ
[38] = Displacement of [14C]benzylpenicillin from PBP1B in Pseudomonas aeruginosa ATCC 15692
Escherichia coli [39] = test: Antibacterial activity against Escherichia coli EIR4b selected at 4 times MIC of imipenem by microdilution method; type: functional
Staphylococcus aureus [40] = test: Ratio of MIC for Staphylococcus aureus SIR2a selected at 2 times MIC of imipenem to MIC for Staphylococcus aureus ATCC 6538P; type: functional
Escherichia coli [41] = test: Antibacterial activity against Escherichia coli ERR4a selected at 4 times MIC of tomopenem by microdilution method; type: functional
[42] = Displacement of [14C]benzylpenicillin from PBP3 in Pseudomonas aeruginosa ATCC 15692
Staphylococcus aureus [43] = test: Ratio of MIC for Staphylococcus aureus SMR4a to MIC for Staphylococcus aureus ATCC 6538P; type: functional
Staphylococcus aureus [44] = test: Antibacterial activity against Staphylococcus aureus ATCC 6538P by microdilution method; type: functional, organism-based
[45] = Displacement of [14C]benzylpenicillin from PBP1 in Staphylococcus aureus ATCC 6538P
Escherichia coli [46] = test: Ratio of MIC for Escherichia coli ERR8a to MIC for Escherichia coli NIHJ; type: functional
Escherichia coli [47] = test: Antibacterial activity against Escherichia coli ERR2b selected at 2 times MIC of tomopenem by microdilution method; type: functional
Escherichia coli [48] = test: Antibacterial activity against Escherichia coli ERR2a selected at 2 times MIC of tomopenem by microdilution method; type: functional
Pseudomonas aeruginosa [49] = test: Ratio of MIC for Pseudomonas aeruginosa PMR2a to MIC for Pseudomonas aeruginosa ATCC 15692; type: functional
[50] = Displacement of [14C]benzylpenicillin from PBP2 in Pseudomonas aeruginosa ATCC 15692
Pseudomonas aeruginosa [51] = test: Ratio of MIC for Pseudomonas aeruginosa PIR2a to MIC for Pseudomonas aeruginosa ATCC 15692; type: functional
Escherichia coli [52] = test: Antibacterial activity against Escherichia coli EIR2b selected at 2 times MIC of imipenem by microdilution method; type: functional
Escherichia coli [53] = test: Ratio of MIC for Escherichia coli EIR4a to MIC for Escherichia coli NIHJ; type: functional
[54] = Displacement of [14C]benzylpenicillin from PBP4 in Escherichia coli NIHJ
Staphylococcus aureus [55] = test: Antibacterial activity against Staphylococcus aureus SMR4a […] MIC of meropenem by microdilution method; type: functional

In the case of C[C@@H](O)[C@H]1C(=O)N2C(C(=O)O)=C(S[C@@H]3CN[C@H](C(=O)N(C)C)C3)[C@H](C)[C@H]12 [MEROPENEM], the Ratio MIC (Escherichia coli [1]) is reported as 2, the MIC (Staphylococcus aureus [2]) is reported as 0.25 µg/mL and the Ratio MIC (Escherichia coli [3]) is reported as 4. For the same molecule, the Ratio MIC (Escherichia coli [4]) was 2, the IC50 [5] was 0.26 µg/mL (≈ 0.678 µM) and the MIC (Escherichia coli [6]) was 0.03 µg/mL. It also gave an IC50 [7] of 0.12 µg/mL (≈ 0.313 µM), a Ratio MIC (Pseudomonas aeruginosa [8]) of 4 and an IC50 [9] of 0.77 µg/mL (≈ 2.01 µM). For the same molecule, the MIC (Escherichia coli [10]) was 0.03 µg/mL, the MIC (Escherichia coli [11]) was 0.06 µg/mL and the Ratio MIC (Staphylococcus aureus [12]) was 8. It also gave an IC50 [13] of 4.5 µg/mL (≈ 11.7 µM), an MIC (Staphylococcus aureus [14]) of 0.12 µg/mL and an MIC (Pseudomonas aeruginosa [15]) of 2 µg/mL. The Ratio MIC (Escherichia coli [16]) was 2, the Ratio MIC (Escherichia coli [17]) was 1 and the Ratio MIC (Escherichia coli [18]) was 1. For the same molecule, the IC50 [19] was > 130 µg/mL, the IC50 [20] was 0.39 µg/mL (≈ 1.02 µM) and the MIC (Escherichia coli [21]) was 0.06 µg/mL. It also gave a Ratio MIC (Escherichia coli [22]) of 1, an IC50 [23] of 0.016 µg/mL (≈ 0.0417 µM) and an IC50 [24] of 0.0033 µg/mL (≈ 0.00861 µM). The MBC (Escherichia coli [25]) was 0.03 µg/mL (≈ 0.0782 µM), the MIC (Escherichia coli [25]) was 0.03 µg/mL (≈ 0.0782 µM) and the MIC (Pseudomonas aeruginosa [26]) was 4 µg/mL. For the same molecule, the IC50 [27] was 4.5 µg/mL (≈ 11.7 µM), the Ratio MIC (Escherichia coli [28]) was 1 and the MIC (Escherichia coli [29]) was 0.03 µg/mL. For the same molecule, the MBC (Pseudomonas aeruginosa [30]) was 1 µg/mL (≈ 2.61 µM), the MIC (Pseudomonas aeruginosa [30]) was 1 µg/mL (≈ 2.61 µM) and the IC50 [31] was 15 µg/mL (≈ 39.1 µM). The MIC (Staphylococcus aureus [32]) was 0.25 µg/mL, the Ratio MIC (Staphylococcus aureus [33]) was 8 and the MIC (Pseudomonas aeruginosa [34]) was 8 µg/mL. It also gave an IC50 [35] of 0.82 µg/mL (≈ 2.14 µM), an IC50 [36] of 0.071 µg/mL (≈ 0.185 µM) and an IC50 [37] of 1.2 µg/mL (≈ 3.13 µM). The IC50 [38] was 0.11 µg/mL (≈ 0.287 µM), the MIC (Escherichia coli [39]) was 0.12 µg/mL and the Ratio MIC (Staphylococcus aureus [40]) was 4. The MIC (Escherichia coli [41]) was 0.06 µg/mL, the IC50 [42] was 0.013 µg/mL (≈ 0.0339 µM) and the ratio (Staphylococcus aureus [43]) was 8. For the same molecule, the IC50 (Staphylococcus aureus [44]) was 0.06 µg/mL (≈ 0.156 µM), the MBC (Staphylococcus aureus [44]) was 0.12 µg/mL (≈ 0.313 µM) and the MIC (Staphylococcus aureus [44]) was 0.06 µg/mL (≈ 0.156 µM). The IC50 [45] was 0.044 µg/mL (≈ 0.115 µM), the Ratio MIC (Escherichia coli [46]) was 2 and the MIC (Escherichia coli [47]) was 0.06 µg/mL. It also gave an MIC (Escherichia coli [48]) of 0.03 µg/mL, a Ratio MIC (Pseudomonas aeruginosa [49]) of 16 and an IC50 [50] of 0.018 µg/mL (≈ 0.0469 µM). It also gave a Ratio MIC (Pseudomonas aeruginosa [51]) of 8, an MIC (Escherichia coli [52]) of 0.03 µg/mL and a Ratio MIC (Escherichia coli [53]) of 1. It also gave an IC50 [54] of 0.047 µg/mL (≈ 0.123 µM) and an MIC (Staphylococcus aureus [55]) of 0.25 µg/mL.
